The subject of this test is HOP-62 multicell spheroids with HUVEC/MSC, viability. Nature of the test: Anticancer human tumor HOP-62 cell line growth inhibition [KRAS2].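 As to all read-outs here: viability read after a week of compound exposure.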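 As to viability, T/C: 100% = DMSO vehicle-treated spheroids.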 As to conditions: for viability, T/C: stronger effect = lower value. A digest of the protocol: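 Combination screen of spheroid viability in tumor-cell co-cultures with endothelial (HUVEC) and mesenchymal stem cell stroma. Each agent was tested in half-log dilutions, topping at clinical Cmax or at 10 microM without a known Cmax.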

Setting [1] is: curve of first compound, second compound 0.1 µM.
Where [2] appears, read: curve of first compound, second compound 0.316 µM.
Where [3] appears, read: curve of first compound, second compound 1 µM.
Setting [4] is: curve of first compound, second compound 3.16 µM.
Setting [5] is: curve of first compound, second compound 10 µM.
Setting [6] is: second compound 0.1 µM, first compound 0.01 µM.
Where [7] appears, read: second compound 0.1 µM, first compound 0.0316 µM.
[8] abbreviates: second compound 0.1 µM, first compound 0.1 µM.
The mark [9] stands for this setting: second compound 0.1 µM, first compound 0.316 µM.
Where [10] appears, read: second compound 0.1 µM, first compound 1 µM.
Setting [11] is: second compound 0.316 µM, first compound 0.01 µM.
[12] abbreviates: second compound 0.316 µM, first compound 0.0316 µM.
Where [13] appears, read: second compound 0.316 µM, first compound 0.1 µM.
[14] abbreviates: second compound 0.316 µM, first compound 0.316 µM.
The mark [15] stands for this setting: second compound 0.316 µM, first compound 1 µM.
Where [16] appears, read: second compound 1 µM, first compound 0.01 µM.
The mark [17] stands for this setting: second compound 1 µM, first compound 0.0316 µM.
Setting [18] is: second compound 1 µM, first compound 0.1 µM.
[19] abbreviates: second compound 1 µM, first compound 0.316 µM.
The mark [20] stands for this setting: second compound 1 µM, first compound 1 µM.
Where [21] appears, read: second compound 3.16 µM, first compound 0.01 µM.
Where [22] appears, read: second compound 3.16 µM, first compound 0.0316 µM.
[23] abbreviates: second compound 3.16 µM, first compound 0.1 µM.
The mark [24] stands for this setting: second compound 3.16 µM, first compound 0.316 µM.
Where [25] appears, read: second compound 3.16 µM, first compound 1 µM.
The mark [26] stands for this setting: second compound 10 µM, first compound 0.01 µM.
Setting [27] is: second compound 10 µM, first compound 0.0316 µM.
[28] abbreviates: second compound 10 µM, first compound 0.1 µM.
Where [29] appears, read: second compound 10 µM, first compound 0.316 µM.
Setting [30] is: second compound 10 µM, first compound 1 µM.
Setting [31] is: second compound 0.1 µM, first compound 0.00316 µM.
[32] abbreviates: second compound 0.316 µM, first compound 0.00316 µM.
[33] abbreviates: second compound 1 µM, first compound 0.00316 µM.
Where [34] appears, read: second compound 3.16 µM, first compound 0.00316 µM.
[35] abbreviates: second compound 10 µM, first compound 0.00316 µM.

In the case of `CC(=O)OC12COC1CC(O)C1(C)C(=O)C(O)C3=C(C)C(OC(=O)C(O)C(NC(=O)OC(C)(C)C)c4ccccc4)CC(O)(C(OC(=O)c4ccccc4)C21)C3(C)C` (stereo not drawn) + COc1cc2nc(C)nc(NC(C)c3cc(N)cc(C(F)(F)F)c3)c2cc1OC1CCOC1, the 50% inhibitory concentration (IC50) was less than 0.01 µM under setting [1]; less than 0.01 µM under setting [2]; less than 0.01 µM under setting [3]; less than 0.01 µM under setting [4]; less than 0.01 µM under setting [5]. The viability, T/C under setting [6] is 40%; the viability, T/C under setting [7] was 32.3%; the viability, T/C under setting [8] is 36.2%; the viability, T/C under setting [9] is 32.7%; the viability, T/C under setting [10] is 37.5%; the viability, T/C (second compound 0.1 µM, first compound 3.16 µM) is 53.4%. Also, the viability, T/C under setting [11] is 38.5%; the viability, T/C under setting [12] is 35.6%; the viability, T/C under setting [13] was 34.4%; the viability, T/C under setting [14] was 27.5%; the viability, T/C under setting [15] was 40.9%; the viability, T/C (second compound 0.316 µM, first compound 3.16 µM) is 41%. Moreover, the viability, T/C is, setting by setting: under setting [16], 29.7%; under setting [17], 35.1%; under setting [18], 34.2%; under setting [19], 39.5%; under setting [20], 39.6%; (second compound 1 µM, first compound 3.16 µM) 38.7%. In addition, the viability, T/C runs as follows: under setting [21], 29.7%; under setting [22], 27.3%; under setting [23], 27.2%; under setting [24], 37%; under setting [25], 35.9%; (second compound 3.16 µM, first compound 3.16 µM) 39.5%. Also, the viability, T/C is 34.2% under setting [26]; 31.1% under setting [27]; 51.7% under setting [28]; 30.7% under setting [29]; 33.7% under setting [30]; 40.6% (second compound 10 µM, first compound 3.16 µM).
With `CC(C)n1nc(-c2ccc3oc(N)nc3c2)c2c(N)ncnc21` + CNCc1ccccc1-c1csc(C(C)Nc2nc(C)nc3cc(OC)c(OC)cc23)c1, the IC50 is 0.00445 µM under setting [1]; 0.00224 µM under setting [2]; 0.00178 µM under setting [3]; less than 0.000316 µM under setting [4]; less than 0.000316 µM under setting [5]. Moreover, the viability, T/C reads like this: (second compound 0.1 µM, first compound 0.000316 µM) 113%; (second compound 0.1 µM, first compound 0.001 µM) 86.7%; under setting [31], 57.9%; under setting [6], 32.5%; under setting [7], 22.2%; under setting [8], 15.9%. The viability, T/C was 89.5% (second compound 0.316 µM, first compound 0.000316 µM); 69.2% (second compound 0.316 µM, first compound 0.001 µM); 40.2% under setting [32]; 27.9% under setting [11]; 19.5% under setting [12]; 15.9% under setting [13]. The viability, T/C (second compound 1 µM, first compound 0.000316 µM) is 75.9%; the viability, T/C (second compound 1 µM, first compound 0.001 µM) is 63.1%; the viability, T/C under setting [33] was 35.3%; the viability, T/C under setting [16] is 28.9%; the viability, T/C under setting [17] is 17.3%; the viability, T/C under setting [18] is 14.1%. In addition, the viability, T/C by setting is: (second compound 3.16 µM, first compound 0.000316 µM) 0.36%; (second compound 3.16 µM, first compound 0.001 µM) 0.49%; under setting [34], 0.36%; under setting [21], 0.46%; under setting [22], 2.66%; under setting [23], 0.67%. Also, the viability, T/C by setting is: (second compound 10 µM, first compound 0.000316 µM) 0.46%; (second compound 10 µM, first compound 0.001 µM) 0.4%; under setting [35], 0.42%; under setting [26], 0.42%; under setting [27], 0.38%; under setting [28], 0.52%.
As to `CC(=O)Nc1cccc(-n2c(=O)n(C3CC3)c(=O)c3c(Nc4ccc(I)cc4F)n(C)c(=O)c(C)c32)c1`, the viability, T/C is, setting by setting: (compound 0.0001 µM) 107% [middle of 5 runs]; (compound 0.000316 µM) 107% [middle of 5 runs]; (compound 0.001 µM) 87.9% [middle of 5 runs]; (compound 0.00316 µM) 61.7% [middle of 5 runs]; (compound 0.01 µM) 31% [middle of 5 runs]; (compound 0.0316 µM) 31.2% [middle of 5 runs]. For the same molecule, the IC50 (curve of compound) is 4.9 nM [middle of 5 runs].
Consider `Cn1nccc1Nc1nccc(-c2cc3c(s2)C(C)(C)N(CCN2CCOCC2)C3=O)n1`, for which the viability, T/C runs as follows: (compound 0.0316 µM) 98.2% [middle of 5 runs]; (compound 0.1 µM) 103% [middle of 5 runs]; (compound 0.316 µM) 99.5% [middle of 5 runs]; (compound 1 µM) 62.4% [middle of 5 runs]; (compound 3.16 µM) 32.8% [middle of 5 runs]; (compound 10 µM) 30.4% [middle of 5 runs]. Moreover, the IC50 (curve of compound) was 1.65 µM [middle of 5 runs].
In the case of `CC(C)n1nc(-c2ccc3oc(N)nc3c2)c2c(N)ncnc21`, the viability, T/C (compound 0.000316 µM) was 93.7% [middle of 5 runs]; the viability, T/C (compound 0.001 µM) is 80.3% [middle of 5 runs]; the viability, T/C (compound 0.01 µM) was 44% [middle of 5 runs]; the viability, T/C (compound 0.0316 µM) is 25.6% [middle of 5 runs]; the viability, T/C (compound 0.1 µM) is 18.1% [middle of 5 runs].
Turning to `CCN1CCN(Cc2ccc(Nc3ncc(F)c(-c4cc(F)c5nc(C)n(C(C)C)c5c4)n3)nc2)CC1`, the viability, T/C is 102% [middle of 5 runs] (compound 0.00316 µM); 102% [middle of 5 runs] (compound 0.01 µM); 99.7% [middle of 5 runs] (compound 0.0316 µM); 98.1% [middle of 5 runs] (compound 0.1 µM); 86.3% [middle of 5 runs] (compound 0.316 µM); 68% [middle of 5 runs] (compound 1 µM). For the same molecule, the concentration for half-maximal inhibition (IC50) (curve of compound) was more than 1 µM.
For the molecule `CCN1CCN(Cc2ccc(Nc3ncc(F)c(-c4cc(F)c5nc(C)n(C(C)C)c5c4)n3)nc2)CC1` + C=CC(=O)N1CCN(c2nc(=O)n(-c3c(C)ccnc3C(C)C)c3nc(-c4c(O)cccc4F)c(F)cc23)C(C)C1, the IC50 was 0.15 µM under setting [1]; 0.0395 µM under setting [2]; 0.501 µM under setting [3]; 0.543 µM under setting [4]; less than 0.00316 µM under setting [5]. Further, the viability, T/C reads like this: under setting [31], 58%; under setting [6], 53.3%; under setting [7], 49.4%; under setting [8], 50.5%; under setting [9], 51.3%; under setting [10], 40.5%. For the same molecule, the viability, T/C was 72.5% under setting [32]; 69.4% under setting [11]; 50.6% under setting [12]; 48% under setting [13]; 49.8% under setting [14]; 44.3% under setting [15]. Besides, the viability, T/C reads like this: under setting [33], 64.9%; under setting [16], 59.2%; under setting [17], 51.7%; under setting [18], 60%; under setting [19], 57.1%; under setting [20], 39.3%. In addition, the viability, T/C is, setting by setting: under setting [34], 70.4%; under setting [21], 63.6%; under setting [22], 57.4%; under setting [23], 53.5%; under setting [24], 63.4%; under setting [25], 36.9%. The viability, T/C reads like this: under setting [35], 51.9%; under setting [26], 41.6%; under setting [27], 42.1%; under setting [28], 39.6%; under setting [29], 38.2%; under setting [30], 22.7%.
Consider `CC(C)NCC(C(=O)N1CCN(c2ncnc3c2C(C)CC3O)CC1)c1ccc(Cl)cc1` (stereo not drawn), for which the viability, T/C was 101% [middle of 5 runs] (compound 0.0316 µM); 104% [middle of 5 runs] (compound 0.1 µM); 80.4% [middle of 5 runs] (compound 0.316 µM); 62.8% [middle of 5 runs] (compound 1 µM); 27.9% [middle of 5 runs] (compound 3.16 µM); 13.2% [middle of 5 runs] (compound 10 µM). For the same molecule, the IC50 (curve of compound) was 1.49 µM [middle of 5 runs].

Values taken from PubChem BioAssay AID1963858 (Molecular Pharmacology Branch, DTP, NCI, 2024).
